Data reported in ChEMBL document CHEMBL1201862, “PubChem BioAssay data set” (2004).
Activity calls are given as the source filed them.

How the values were obtained:
Large T antigen = Large T antigen (Simian virus 40, UniProt P03070); assay type: functional, Betapolyomavirus macacae;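 also: Confirmatory-stage PubChem screen for compounds that inhibit SV40 T antigen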
Protein RecA = biological target: T1, Protein RecA (Mycobacterium tuberculosis, UniProt P9WHJ3); test: Fluorescence Cell-Free Homogeneous Dose Retest to Identify Inhibitors of RecA-Intein Splicing Activity. [Related pubchem assays (depositor defined):AID2097, AID2223, AID489010, AID492950]; assay type: functional
T1 sequence (P9WHJ3 whole entry): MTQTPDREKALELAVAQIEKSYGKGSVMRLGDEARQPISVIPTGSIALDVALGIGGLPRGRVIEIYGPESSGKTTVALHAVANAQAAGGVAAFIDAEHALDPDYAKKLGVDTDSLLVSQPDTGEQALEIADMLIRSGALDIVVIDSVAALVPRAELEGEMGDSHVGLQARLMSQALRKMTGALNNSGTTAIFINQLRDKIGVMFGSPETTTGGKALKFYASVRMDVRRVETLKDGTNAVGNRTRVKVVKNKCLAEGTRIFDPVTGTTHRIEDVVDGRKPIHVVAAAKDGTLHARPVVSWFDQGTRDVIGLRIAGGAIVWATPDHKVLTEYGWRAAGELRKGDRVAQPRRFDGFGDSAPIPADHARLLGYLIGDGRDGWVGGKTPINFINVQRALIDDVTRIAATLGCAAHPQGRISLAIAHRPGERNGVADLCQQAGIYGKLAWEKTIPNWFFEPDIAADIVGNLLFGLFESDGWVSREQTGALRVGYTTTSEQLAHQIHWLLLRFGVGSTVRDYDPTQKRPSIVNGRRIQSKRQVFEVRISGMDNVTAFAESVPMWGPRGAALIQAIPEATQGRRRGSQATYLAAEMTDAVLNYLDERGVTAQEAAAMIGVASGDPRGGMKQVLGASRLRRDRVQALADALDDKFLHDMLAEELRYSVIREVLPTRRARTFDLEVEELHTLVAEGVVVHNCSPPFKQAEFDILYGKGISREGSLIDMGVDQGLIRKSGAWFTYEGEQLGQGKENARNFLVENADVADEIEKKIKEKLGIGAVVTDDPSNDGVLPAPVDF

[1] = biological target: Intestinal-type alkaline phosphatase (Mus musculus, UniProt P24822); test: PubChem AID 488785; assay type: functional
Sequence of Intestinal-type alkaline phosphatase (Mus musculus, UniProt P24822) (P24822 whole entry): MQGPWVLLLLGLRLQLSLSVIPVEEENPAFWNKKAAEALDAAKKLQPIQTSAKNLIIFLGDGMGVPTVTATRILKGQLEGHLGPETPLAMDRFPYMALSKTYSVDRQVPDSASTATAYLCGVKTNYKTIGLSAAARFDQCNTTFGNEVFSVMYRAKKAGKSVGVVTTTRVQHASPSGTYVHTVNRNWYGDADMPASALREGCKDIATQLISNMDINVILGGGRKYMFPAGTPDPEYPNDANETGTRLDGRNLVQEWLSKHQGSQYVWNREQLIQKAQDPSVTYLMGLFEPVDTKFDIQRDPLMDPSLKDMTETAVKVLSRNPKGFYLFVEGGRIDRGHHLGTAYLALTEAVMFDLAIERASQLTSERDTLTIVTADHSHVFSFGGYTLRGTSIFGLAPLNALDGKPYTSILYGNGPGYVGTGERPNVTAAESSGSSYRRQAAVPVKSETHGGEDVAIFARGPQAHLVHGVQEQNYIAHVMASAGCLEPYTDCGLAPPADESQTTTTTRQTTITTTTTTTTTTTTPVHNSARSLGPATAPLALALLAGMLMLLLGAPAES

[2] = biological target: T2, Replicative DNA helicase DnaB (Mycobacterium tuberculosis, UniProt P9WMR3); test: DnaB intein splicing inhibitors, dose response, biochemical, cell-free fluorescence (AID 449749); assay type: functional
T2 sequence (P9WMR3 whole entry): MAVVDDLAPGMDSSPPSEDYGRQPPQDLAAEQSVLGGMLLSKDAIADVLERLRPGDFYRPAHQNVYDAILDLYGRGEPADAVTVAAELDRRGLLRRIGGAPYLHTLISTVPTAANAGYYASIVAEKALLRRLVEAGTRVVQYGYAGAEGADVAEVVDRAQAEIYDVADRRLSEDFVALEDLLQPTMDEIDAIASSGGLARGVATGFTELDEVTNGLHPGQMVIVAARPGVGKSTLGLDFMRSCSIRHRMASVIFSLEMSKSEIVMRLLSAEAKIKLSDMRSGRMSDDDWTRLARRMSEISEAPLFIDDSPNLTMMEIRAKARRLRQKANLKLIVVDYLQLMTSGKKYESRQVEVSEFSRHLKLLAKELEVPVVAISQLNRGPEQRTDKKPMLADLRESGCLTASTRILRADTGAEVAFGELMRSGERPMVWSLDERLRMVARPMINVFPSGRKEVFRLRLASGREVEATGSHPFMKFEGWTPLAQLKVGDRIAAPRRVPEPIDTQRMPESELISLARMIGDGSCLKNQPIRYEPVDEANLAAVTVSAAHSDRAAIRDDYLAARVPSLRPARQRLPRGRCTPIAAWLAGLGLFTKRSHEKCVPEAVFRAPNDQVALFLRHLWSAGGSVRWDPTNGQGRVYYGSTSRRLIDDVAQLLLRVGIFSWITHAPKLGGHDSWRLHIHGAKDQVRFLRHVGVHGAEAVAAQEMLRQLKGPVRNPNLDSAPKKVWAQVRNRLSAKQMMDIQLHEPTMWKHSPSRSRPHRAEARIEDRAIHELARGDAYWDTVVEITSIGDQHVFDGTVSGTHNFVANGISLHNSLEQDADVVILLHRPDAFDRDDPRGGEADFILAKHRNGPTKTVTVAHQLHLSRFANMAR

[3] = biological target: Intestinal-type alkaline phosphatase (Homo sapiens, UniProt P09923); test: inhibition of human intestinal alkaline phosphatase – biochemical, dose response (AID 488876); assay type: functional
Sequence of Intestinal-type alkaline phosphatase (Homo sapiens, UniProt P09923) (P09923 whole entry): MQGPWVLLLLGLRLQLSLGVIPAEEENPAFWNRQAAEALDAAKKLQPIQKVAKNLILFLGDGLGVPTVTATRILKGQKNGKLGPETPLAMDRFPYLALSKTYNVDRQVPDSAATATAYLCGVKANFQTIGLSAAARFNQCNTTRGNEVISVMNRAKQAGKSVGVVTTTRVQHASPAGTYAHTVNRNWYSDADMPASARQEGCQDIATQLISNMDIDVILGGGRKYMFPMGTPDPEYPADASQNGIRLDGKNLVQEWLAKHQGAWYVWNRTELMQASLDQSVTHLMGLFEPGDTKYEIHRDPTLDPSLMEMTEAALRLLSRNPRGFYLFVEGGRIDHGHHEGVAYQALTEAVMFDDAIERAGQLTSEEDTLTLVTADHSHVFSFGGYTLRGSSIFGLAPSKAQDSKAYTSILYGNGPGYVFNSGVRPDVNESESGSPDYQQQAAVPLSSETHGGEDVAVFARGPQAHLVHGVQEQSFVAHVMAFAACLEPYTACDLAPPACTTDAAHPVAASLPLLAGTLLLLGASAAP

[4] = biological target: T3, Alkaline phosphatase, tissue-nonspecific isozyme (Homo sapiens, UniProt P05186); test: TNAP enzyme inhibition by screening hits, dose response, selectivity assay for mouse IAP inhibitor project, biochemical, human TNAP, uHTS hits (AID 488906); assay type: functional
T3 sequence (P05186 whole entry): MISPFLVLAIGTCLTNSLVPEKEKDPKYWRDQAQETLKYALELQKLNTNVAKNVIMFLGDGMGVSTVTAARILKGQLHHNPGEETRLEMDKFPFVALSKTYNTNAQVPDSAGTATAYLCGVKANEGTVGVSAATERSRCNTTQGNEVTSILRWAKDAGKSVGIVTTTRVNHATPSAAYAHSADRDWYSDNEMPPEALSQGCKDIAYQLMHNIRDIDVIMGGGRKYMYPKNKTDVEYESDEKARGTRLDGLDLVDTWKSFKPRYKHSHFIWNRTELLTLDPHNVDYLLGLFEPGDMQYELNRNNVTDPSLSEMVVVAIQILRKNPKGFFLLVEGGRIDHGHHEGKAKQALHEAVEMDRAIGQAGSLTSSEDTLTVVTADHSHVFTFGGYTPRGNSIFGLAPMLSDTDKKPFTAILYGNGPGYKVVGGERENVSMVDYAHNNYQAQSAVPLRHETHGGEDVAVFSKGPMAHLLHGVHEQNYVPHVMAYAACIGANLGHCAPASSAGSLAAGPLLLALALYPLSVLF

[5] = biological target: Opioid receptors; mu & delta (Homo sapiens, UniProt P41143+P35372); test: agonists of MOR-DOR heterodimerization, dose response, cell-based, luminescence (AID 588407); assay type: functional
[6] = biological target: 5-hydroxytryptamine receptor 5A (Homo sapiens, UniProt P47898); test: Counterscreen for agonists of OPRM1-OPRD1 heterodimerization: luminescence-based cell-based high throughput dose response assay to identify agonists of 5-hydroxytryptamine (serotonin) 5A receptor (HTR5A). [Related pubchem assays (depositor defined):AID504326, AID504355, AID504692, AID504904, AID504905]; assay type: functional
Sequence of 5-hydroxytryptamine receptor 5A (P47898 whole entry): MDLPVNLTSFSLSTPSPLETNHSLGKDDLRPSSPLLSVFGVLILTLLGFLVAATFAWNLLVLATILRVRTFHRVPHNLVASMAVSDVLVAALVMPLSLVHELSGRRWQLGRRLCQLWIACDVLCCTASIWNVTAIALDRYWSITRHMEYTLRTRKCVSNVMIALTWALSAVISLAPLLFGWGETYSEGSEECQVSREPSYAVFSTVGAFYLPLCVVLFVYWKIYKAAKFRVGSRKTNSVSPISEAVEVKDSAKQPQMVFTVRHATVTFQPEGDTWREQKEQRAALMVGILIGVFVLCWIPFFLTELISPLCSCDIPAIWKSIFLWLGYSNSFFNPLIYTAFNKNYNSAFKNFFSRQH

Mu-type opioid receptor = Mu-type opioid receptor (Homo sapiens, UniProt P35372); test: (§1) Counterscreen for agonists of heterodimerization of the mu 1 (OPRM1) and delta 1 (OPRD1) opioid receptors: Luminescence-based cell-based high throughput dose response assay to identify agonists of OPRM1 homodimerization.; assay type: functional
Sequence of Mu-type opioid receptor (P35372 whole entry): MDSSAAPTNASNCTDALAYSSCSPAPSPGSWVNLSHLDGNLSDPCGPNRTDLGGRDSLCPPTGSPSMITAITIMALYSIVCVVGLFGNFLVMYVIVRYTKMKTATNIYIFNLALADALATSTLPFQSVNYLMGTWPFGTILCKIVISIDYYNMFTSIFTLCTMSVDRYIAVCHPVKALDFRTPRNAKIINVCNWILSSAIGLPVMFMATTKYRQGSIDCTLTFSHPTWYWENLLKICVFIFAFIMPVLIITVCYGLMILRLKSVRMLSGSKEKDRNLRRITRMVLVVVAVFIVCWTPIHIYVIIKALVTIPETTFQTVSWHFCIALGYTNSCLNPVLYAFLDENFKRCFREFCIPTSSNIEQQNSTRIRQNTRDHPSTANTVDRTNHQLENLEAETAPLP

[7] = biological target: Delta-type opioid receptor (Homo sapiens, UniProt P41143); test: as §1, with “of OPRD1” for “of OPRM1”, “homodimerization. [Related pubchem assays (depositor defined):AID504326, AID504355, AID504692, AID504904, AID504905]” for “homodimerization.”; assay type: functional
Sequence of Delta-type opioid receptor (P41143 whole entry): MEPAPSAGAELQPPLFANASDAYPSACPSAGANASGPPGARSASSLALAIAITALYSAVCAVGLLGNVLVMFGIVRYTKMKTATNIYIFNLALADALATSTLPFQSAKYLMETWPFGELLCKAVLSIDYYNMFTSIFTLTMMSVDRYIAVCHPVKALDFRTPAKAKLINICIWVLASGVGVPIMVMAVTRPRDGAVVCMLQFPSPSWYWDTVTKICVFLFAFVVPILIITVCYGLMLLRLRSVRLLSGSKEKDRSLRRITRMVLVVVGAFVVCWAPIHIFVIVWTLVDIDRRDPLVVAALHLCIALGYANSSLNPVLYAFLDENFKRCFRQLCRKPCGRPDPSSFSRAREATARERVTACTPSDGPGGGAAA

Cannabinoid receptor 2 [8] = biological target: T4, Cannabinoid receptor 2 (Homo sapiens, UniProt P34972); test: SAR analysis of antagonists of the Cannabinoid Receptor 2 using an Image-Based Assay. [Related pubchem assays (depositor defined):AID2013, AID2026]; assay type: functional
T4 sequence (P34972 whole entry): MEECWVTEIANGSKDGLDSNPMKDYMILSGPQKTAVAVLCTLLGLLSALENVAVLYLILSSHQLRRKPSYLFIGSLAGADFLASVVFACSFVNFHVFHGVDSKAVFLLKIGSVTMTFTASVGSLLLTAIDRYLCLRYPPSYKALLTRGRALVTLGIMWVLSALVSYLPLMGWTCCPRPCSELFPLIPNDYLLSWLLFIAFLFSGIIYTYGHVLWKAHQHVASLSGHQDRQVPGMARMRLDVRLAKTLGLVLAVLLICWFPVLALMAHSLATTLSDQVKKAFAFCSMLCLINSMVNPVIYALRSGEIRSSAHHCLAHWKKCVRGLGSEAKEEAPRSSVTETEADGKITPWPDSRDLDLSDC

Streptococcus = test: Group A Streptococcus viability loss, dose response, counter-screen for streptokinase expression inhibitor project, luminescence, BacTiterGlo (AID 1915); assay type: functional, organism-based;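 also: potency for reduction of bacterial viability or growth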
[9] = biological target: T5, G-protein coupled receptor 35 (Homo sapiens, UniProt Q9HC97); test: SAR analysis of Agonists of the GPR35 Receptor using an Image-Based Assay - Set 2. [Related pubchem assays (depositor defined):AID2013, AID2026]; assay type: functional
T5 sequence (Q9HC97 whole entry): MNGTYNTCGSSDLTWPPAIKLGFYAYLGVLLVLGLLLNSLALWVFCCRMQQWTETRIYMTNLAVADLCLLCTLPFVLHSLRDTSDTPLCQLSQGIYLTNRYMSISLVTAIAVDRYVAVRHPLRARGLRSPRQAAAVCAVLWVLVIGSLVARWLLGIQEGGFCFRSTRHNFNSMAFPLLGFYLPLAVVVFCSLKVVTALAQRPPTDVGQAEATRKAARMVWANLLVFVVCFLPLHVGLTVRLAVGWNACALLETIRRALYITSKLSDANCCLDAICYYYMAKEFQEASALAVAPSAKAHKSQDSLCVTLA

[10] = biological target: T6, Short transient receptor potential channel 4 (Mus musculus, UniProt Q9QUQ5); test: mouse TRPC4 channel inhibitors, dose response, cell-based, HEK293 TRPC4/mu-opioid, Fluo-4 calcium (AID 434942); assay type: functional;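 also: potency of inhibitors blocking the TRPC4 calcium response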
T6 sequence (Q9QUQ5 whole entry): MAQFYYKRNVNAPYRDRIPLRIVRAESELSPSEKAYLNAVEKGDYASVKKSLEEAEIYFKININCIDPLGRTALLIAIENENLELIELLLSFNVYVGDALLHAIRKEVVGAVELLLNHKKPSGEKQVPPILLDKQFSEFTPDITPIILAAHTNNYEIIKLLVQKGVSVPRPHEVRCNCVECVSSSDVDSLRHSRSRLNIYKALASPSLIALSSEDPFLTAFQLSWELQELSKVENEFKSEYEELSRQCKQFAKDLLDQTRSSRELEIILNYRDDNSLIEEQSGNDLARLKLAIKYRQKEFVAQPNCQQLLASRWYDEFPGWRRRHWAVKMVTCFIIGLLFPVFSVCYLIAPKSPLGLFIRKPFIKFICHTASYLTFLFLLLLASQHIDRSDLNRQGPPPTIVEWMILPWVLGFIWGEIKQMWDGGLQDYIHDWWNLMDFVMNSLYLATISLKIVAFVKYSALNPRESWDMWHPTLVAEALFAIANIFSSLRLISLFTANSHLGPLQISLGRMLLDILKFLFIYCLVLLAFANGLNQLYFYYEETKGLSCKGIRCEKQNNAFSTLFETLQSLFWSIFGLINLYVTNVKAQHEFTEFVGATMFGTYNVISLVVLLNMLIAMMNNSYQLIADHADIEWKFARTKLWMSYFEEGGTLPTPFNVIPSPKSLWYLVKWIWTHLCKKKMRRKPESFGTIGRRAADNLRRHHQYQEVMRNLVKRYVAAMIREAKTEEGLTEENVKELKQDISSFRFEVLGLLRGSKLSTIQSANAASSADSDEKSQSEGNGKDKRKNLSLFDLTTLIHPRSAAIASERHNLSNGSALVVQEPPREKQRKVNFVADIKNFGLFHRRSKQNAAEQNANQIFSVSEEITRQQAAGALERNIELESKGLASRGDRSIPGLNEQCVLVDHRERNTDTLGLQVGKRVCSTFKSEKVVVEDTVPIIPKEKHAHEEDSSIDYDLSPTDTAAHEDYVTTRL

[11] = biological target: T5, G-protein coupled receptor 35; test: SAR analysis of Antagonists of the GPR35 Receptor using an Image-Based Assay - Set 3. [Related pubchem assays (depositor defined):AID2013, AID2026]; assay type: functional
Cannabinoid receptor 2 [12] = biological target: T4, Cannabinoid receptor 2; test: SAR analysis of agonists of the Cannabinoid Receptor 2 using an Image-Based Assay. [Related pubchem assays (depositor defined):AID2013, AID2026]; assay type: functional
[13] = tested on: Streptococcus sp. 'group A'; test: growth inhibition of control SK(-) GAS strain, dose response, counter-screen for streptokinase expression inhibitor project, luminescence, kanamycin, BacTiterGlo, confirmation (AID 1900); assay type: functional, organism-based
[14] = biological target: T7, G-protein coupled receptor 55 (Homo sapiens, UniProt Q9Y2T6); test: GPR55 antagonist potency of analogs, SAR follow-up, imaging, U2OS, beta-arrestin-GFP, LPI agonist, set 2 (AID 2820); assay type: functional
T7 sequence (Q9Y2T6 whole entry): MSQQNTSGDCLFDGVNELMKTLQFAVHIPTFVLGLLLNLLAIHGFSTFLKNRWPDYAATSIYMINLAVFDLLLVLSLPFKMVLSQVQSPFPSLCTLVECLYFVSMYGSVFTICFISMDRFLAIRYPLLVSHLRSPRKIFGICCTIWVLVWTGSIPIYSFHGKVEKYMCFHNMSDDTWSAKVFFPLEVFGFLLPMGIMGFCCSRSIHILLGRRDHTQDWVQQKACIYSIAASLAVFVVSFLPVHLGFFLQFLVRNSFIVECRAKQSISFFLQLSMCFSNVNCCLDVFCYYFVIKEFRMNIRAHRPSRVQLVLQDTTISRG

Cannabinoid receptor 1 [15] = biological target: T8, Cannabinoid receptor 1 (Homo sapiens, UniProt P21554); test: SAR analysis of agonists of the Cannabinoid Receptor 1 using an Image-Based Assay - Set 2. [Related pubchem assays (depositor defined):AID2013, AID2026]; assay type: functional
T8 sequence (P21554 whole entry): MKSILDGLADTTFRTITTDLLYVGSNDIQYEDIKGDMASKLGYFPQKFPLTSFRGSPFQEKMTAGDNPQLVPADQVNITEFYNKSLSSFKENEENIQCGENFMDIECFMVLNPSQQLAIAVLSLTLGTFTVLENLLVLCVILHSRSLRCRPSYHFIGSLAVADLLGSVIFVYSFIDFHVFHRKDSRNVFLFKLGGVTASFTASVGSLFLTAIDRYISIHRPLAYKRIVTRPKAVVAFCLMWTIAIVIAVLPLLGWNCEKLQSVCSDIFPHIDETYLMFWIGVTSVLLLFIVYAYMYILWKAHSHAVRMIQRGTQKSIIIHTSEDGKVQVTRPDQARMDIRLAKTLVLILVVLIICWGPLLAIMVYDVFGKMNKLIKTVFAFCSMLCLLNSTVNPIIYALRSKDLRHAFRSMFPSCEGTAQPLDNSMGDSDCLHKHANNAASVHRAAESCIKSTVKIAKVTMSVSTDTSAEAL

Cannabinoid receptor 1 [16] = biological target: T8, Cannabinoid receptor 1; test: SAR analysis of antagonists of the Cannabinoid Receptor 1 using an Image-Based Assay - Set 2. [Related pubchem assays (depositor defined):AID2013, AID2026]; assay type: functional
[17] = biological target: T7, G-protein coupled receptor 55; test: GPR55 antagonists blocking LPI-driven arrestin recruitment, primary screen, imaging, U2OS, beta-arrestin-GFP, LPI agonist (AID 2013); assay type: functional;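 also: antagonist potency measured as reduced agonist-driven arrestin aggregation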
Streptokinase A = biological target: T9, Streptokinase A (Streptococcus pyogenes serotype M1, UniProt P10520); test: S. pyogenes streptokinase expression inhibitors, potency, dose response, plasminogen activation absorbance, OD405 (AID 1914); assay type: functional, Streptococcus pyogenes M1 GAS;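 also: secreted streptokinase activity via plasminogen activation per viability signal from cell pellet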
T9 sequence (P10520 whole entry): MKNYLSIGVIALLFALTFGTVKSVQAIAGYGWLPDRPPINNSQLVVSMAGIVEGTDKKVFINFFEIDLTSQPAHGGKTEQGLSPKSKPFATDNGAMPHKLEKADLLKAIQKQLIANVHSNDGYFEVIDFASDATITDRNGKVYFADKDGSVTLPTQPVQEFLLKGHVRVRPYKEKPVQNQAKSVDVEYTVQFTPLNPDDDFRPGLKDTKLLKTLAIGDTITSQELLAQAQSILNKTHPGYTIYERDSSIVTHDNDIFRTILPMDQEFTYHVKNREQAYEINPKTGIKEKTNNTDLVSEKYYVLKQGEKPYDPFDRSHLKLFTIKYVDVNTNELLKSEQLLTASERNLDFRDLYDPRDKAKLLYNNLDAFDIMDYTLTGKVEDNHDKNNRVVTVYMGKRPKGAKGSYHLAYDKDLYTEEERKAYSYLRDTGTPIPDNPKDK

Sequence of Large T antigen (P03070 whole entry): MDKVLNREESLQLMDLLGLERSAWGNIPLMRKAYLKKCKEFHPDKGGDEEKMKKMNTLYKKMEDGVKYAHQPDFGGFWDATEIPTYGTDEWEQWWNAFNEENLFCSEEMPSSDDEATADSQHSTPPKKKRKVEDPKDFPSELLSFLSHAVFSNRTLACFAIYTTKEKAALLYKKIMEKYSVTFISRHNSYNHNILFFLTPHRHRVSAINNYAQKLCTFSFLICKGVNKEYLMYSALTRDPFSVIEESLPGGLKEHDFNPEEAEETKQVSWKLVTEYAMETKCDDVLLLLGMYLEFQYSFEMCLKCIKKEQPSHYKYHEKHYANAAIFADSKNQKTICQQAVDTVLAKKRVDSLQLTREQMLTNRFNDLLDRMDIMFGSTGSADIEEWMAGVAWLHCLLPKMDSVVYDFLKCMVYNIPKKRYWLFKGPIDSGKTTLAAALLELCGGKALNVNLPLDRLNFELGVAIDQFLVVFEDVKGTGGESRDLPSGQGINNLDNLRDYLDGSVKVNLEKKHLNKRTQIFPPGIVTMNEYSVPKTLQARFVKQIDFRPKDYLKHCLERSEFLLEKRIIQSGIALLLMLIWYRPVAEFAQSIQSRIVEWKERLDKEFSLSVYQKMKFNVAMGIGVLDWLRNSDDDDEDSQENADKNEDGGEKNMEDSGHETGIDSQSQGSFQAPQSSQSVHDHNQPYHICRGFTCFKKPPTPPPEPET

Oc1cc(O)c2c(c1)O[C@H](c1ccc(O)c(O)c1)[C@@H](O)C2
inactive: IC50 [3] > 100 µM
active: IC50 (Large T antigen) 11.4 µM | EC50 (Protein RecA) 4.11 µM | IC50 [1] 15.5 µM | AC50 [2] 22.2 µM | IC50 [4] 37.1 µM

c1ccc(C2[C@H]3CN(Cc4cccnc4)[C@H](c4ccccc4)C34CC2(c2cccnc2)C4)cc1 (some centres undefined)
> 3.424 µM: EC50 [5]
active: EC50 (Protein RecA) 16.7 µM | AC50 [2] 3.72 µM | EC50 [7] 3.21 µM
inactive: EC50 [6] > 92.5 µM | EC50 (Mu-type opioid receptor) > 92.5 µM

COc1ccc(NC(=O)c2cnn3c(O)cc(C4CCN(C(=O)OC(C)(C)C)CC4)nc23)cc1Cl
inactive: IC50 (Cannabinoid receptor 2 [8]) > 32 µM | IC50 [11] 29.4 µM | EC50 (Cannabinoid receptor 2 [12]) > 32 µM | EC50 (Cannabinoid receptor 1 [15]) > 32 µM | IC50 (Cannabinoid receptor 1 [16]) > 32 µM
> 150 µM (not active): EC50 (Streptokinase A)
active: EC50 (Streptococcus) 17.8 µM | EC50 [9] 0.506 µM | EC50 [10] 1.33 µM | EC50 [13] 3.36 µM | IC50 [14] 0.422 µM | IC50 [17] < 0.5 µM
